Data published in US10980769B2, “Tiglien-3-one derivatives” (QBIOTICS PTY LTD, priority 2005, dated 2021).

Assays:
Trichophyton rubrum = assay: MycoTOX (Tr) antifungal bioassay; format: cell-based
Protocol: MycoTOX (alternatively referred to herein as Tr) is a non-chromogenic bioassay used to detect activity against filamentous fungal pathogens of plants and animals. The bioassay features a solid phase agar base into which the test compound has been incorporated. As the growth patterns of filamentous fungi are readily apparent on the agar surface the extent of mycelial growth, sporulation (if relevant to the species under investigation) and colour changes with maturation are measured.
MycoTOX, involves a fungus (spore suspension or mycelial fragments) being applied to the surface of an agar matrix containing the test chemical and allowed to grow for a period of up to a week (depending on species). The assay is monitored at two discrete times to identify key development phases in the life cycle (for example mycelial growth and extent of sporulation) and the active wells noted. The monitoring times are dependent on the fungal species under investigation.
The MycoTOX assays were carried out using Trichophyton rubrum. The MycoTOX test is alternatively referred to as Tr to indicate the use of Trichophyton rubrum.

Solubility tests = format: physicochemical
Description: It requires a small amount of such solvents to form aqueous solutions. […] Higher solubilities may well be achieveable.

C/C=C(\C)C(=O)OC1C(C)C2(O)C(C3OC3(CO)C(O)C3(O)C(=O)C(C)=CC32)C2C(C)(C)C12OC(=O)C(C)CC (stereo not shown) [EBI-46, 12-tigloyl-13-(2-methylbutanoyl)-6,7-epoxy-4,5,9,12,13,20-hexahydroxy-1-tiglian-3-one]
Tr Titre (Trichophyton rubrum): 0 | solubility (Solubility tests; 5 μg/mL in 99.9% water): 100% | solubility (Solubility tests; 50 μg/mL in 99% water): 100% | solubility (Solubility tests; 450 μg/mL in 90% water): 100% | solubility in vehicle (Solubility tests; 25% propylene glycol-saline, 250 μg/mL): no sign of insolubility | solubility in vehicle (Solubility tests; PEG 400 containing 10% ethanol): freely soluble | solubility in organic solvents (Solubility tests; acetone, alcohols and PEG 400): highly soluble
